Assay results taken from ChEMBL document CHEMBL6083286, “Discovery of ERD-12310A as an Exceptionally Potent and Orally Efficacious PROTAC Degrader of Estrogen Receptor α (ERα)” (J Med Chem, 2024).
The source made the active and inactive calls. The rule behind the calls is not given here.

Key:
[1] = Metabolic stability mouse liver microsome assessed as half life; format: ADME; conditions: microsomes
[2] = Drug concentration in female Sprague-Dawley rat plasma at 3 mg/kg, po measured at 1 hr by LC-MS analysis; format: ADME, organism-based
[3] = Drug concentration in female Sprague-Dawley rat plasma at 3 mg/kg, po measured at 24 hrs by LC-MS analysis; format: ADME, organism-based
[4] = Drug concentration in female Sprague-Dawley rat plasma at 3 mg/kg, po measured at 3 hrs by LC-MS analysis; format: ADME, organism-based
[5] = Metabolic stability human liver microsome assessed as half life; format: ADME; conditions: microsomes
[6] = biological target: T1, Protein cereblon/Estrogen receptor (Homo sapiens, UniProt P03372+Q96SW2); experiment: PROTAC activity at CRBN/ERalpha in human MCF7 cells assessed as reduction in ERalpha protein level measured after 12 hrs by Western blot analysis; format: cell-based
Target sequence in this assay (P03372 whole entry): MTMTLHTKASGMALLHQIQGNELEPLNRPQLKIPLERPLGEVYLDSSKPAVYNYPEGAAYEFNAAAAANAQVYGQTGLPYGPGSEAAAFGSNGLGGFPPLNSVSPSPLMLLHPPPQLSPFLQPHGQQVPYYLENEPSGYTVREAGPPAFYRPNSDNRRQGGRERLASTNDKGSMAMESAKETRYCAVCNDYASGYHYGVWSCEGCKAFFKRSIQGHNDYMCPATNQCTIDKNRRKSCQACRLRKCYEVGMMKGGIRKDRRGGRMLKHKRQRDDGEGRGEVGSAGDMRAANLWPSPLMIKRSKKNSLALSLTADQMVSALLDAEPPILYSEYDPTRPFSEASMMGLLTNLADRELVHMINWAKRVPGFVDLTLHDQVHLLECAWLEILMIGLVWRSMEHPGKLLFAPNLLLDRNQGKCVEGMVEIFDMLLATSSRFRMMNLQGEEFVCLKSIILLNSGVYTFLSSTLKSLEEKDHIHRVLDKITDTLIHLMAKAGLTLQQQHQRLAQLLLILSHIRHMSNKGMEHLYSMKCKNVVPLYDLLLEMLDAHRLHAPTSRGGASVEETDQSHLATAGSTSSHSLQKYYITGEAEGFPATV
Target sequence in this assay (Q96SW2 whole entry): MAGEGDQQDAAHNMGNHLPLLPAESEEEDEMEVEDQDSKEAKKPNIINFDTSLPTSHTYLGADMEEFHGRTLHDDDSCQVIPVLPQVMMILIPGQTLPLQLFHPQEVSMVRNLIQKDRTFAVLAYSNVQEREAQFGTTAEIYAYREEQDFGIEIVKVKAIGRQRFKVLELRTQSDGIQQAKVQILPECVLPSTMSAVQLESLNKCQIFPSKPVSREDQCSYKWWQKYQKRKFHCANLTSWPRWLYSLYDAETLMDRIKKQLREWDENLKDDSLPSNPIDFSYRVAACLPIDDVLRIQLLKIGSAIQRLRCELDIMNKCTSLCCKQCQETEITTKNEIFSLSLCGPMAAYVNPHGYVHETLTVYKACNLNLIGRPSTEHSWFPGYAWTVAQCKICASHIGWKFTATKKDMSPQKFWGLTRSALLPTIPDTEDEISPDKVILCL

[7] = biological target: T1, Protein cereblon/Estrogen receptor; experiment: PROTAC activity at CRBN/ERalpha in human MCF7 cells assessed as reduction in ERalpha protein level measured after 12 hrs by Western blot analysis relative to control; format: cell-based
Target sequence in this assay (P03372 whole entry, looked up): as the sequence (P03372 whole entry) above
Target sequence in this assay (Q96SW2 whole entry, looked up): as the sequence (Q96SW2 whole entry) above

[8] = Metabolic stability rat liver microsome assessed as half life; format: ADME; conditions: microsomes
[9] = Drug concentration in female Sprague-Dawley rat plasma at 3 mg/kg, po measured at 6 hrs by LC-MS analysis; format: ADME, organism-based
[10] = biological target: T1, Protein cereblon/Estrogen receptor; experiment: PROTAC activity at CRBN/ERalpha in human MCF7 cells assessed as effect on GSPT1 level at 100 nM measured for 5 hrs by Western blot analysis; format: cell-based
Target sequence in this assay (P03372 whole entry, looked up): as the sequence (P03372 whole entry) above
Target sequence in this assay (Q96SW2 whole entry, looked up): as the sequence (Q96SW2 whole entry) above

| Structure (SMILES) | t1/2 [1] [min] | concentration at 1 h [2] [ng/mL] | concentration at 24 h [3] [ng/mL] | concentration at 3 h [4] [ng/mL] | t1/2 [5] [min] | DC50 [6] [nM] | Emax [7] [%] | t1/2 [8] [min] | concentration at 6 h [9] [ng/mL] | Activity [10] |
| --- | --- | --- | --- | --- | --- | --- | --- | --- | --- | --- |
| O=C1CC[C@H](N2Cc3c(ccc4c3OCC43CCN(CC(=O)N4CC5(CCN(c6ccc([C@@H]7c8ccc(O)cc8CC[C@@H]7c7ccccc7)cc6)CC5)C4)CC3)C2=O)C(=O)N1 | 35 | 9 | < 5 | < 5 | > 60 | 0.0341 | 102 | 49 | < 5 | – |
| O=C1CCC(N2Cc3c(CCCCCNC(=O)[C@@H]4NC5(CCCCC5)[C@@]5(C(=O)Nc6cc(Cl)ccc65)[C@H]4c4cccc(Cl)c4F)cccc3C2=O)C(=O)N1 (stereo not given in full) | – | – | – | – | – | – | – | – | – | Active |
